In US9623009B2, “Veliparib in combination with carboplatin and paclitaxel for the treatment of non-small cell lung cancer in smokers” (AbbVie Inc., priority 2014, dated 2017):

Tests used:
[1] = Pharmacokinetic parameters in cotinine high versus cotinine low patients of the Phase 2 study
Protocol: (§1) A Phase 2, randomized, double-blind, multi-center study was conducted evaluating the efficacy, safety, and tolerability of veliparib in combination with carboplatin and paclitaxel versus placebo in combination with carboplatin and paclitaxel in subjects with documented metastatic or advanced non-small cell lung cancer (NSCLC) as first-line chemotherapy. Patients were randomized in a 2:1 ratio to either veliparib+carboplatin/paclitaxel or placebo+carboplatin/paclitaxel. Patient randomization was stratified by histology (squamous cell versus non-squamous cell), and smoking history (current smoker versus never smoked versus past smoker). Screening procedures and baseline radiographic tumor assessments were performed within 21 days prior to the first day veliparib/placebo was administered. Radiographic tumor assessments were conducted every 6 weeks and were sent to a central imaging center for review. Dosing of oral veliparib/placebo (120 mg) began 2 days prior to the start of the carboplatin/paclitaxel and was given twice a day (BID) for 7 days. […] All subjects were to remain on study until reaching a protocol defined event of disease progression. Patients who completed 6 cycles of treatment remained on study/off study drugs until reaching an event of disease progression. Chemotherapy or biological therapy (maintenance therapy) was not allowed until disease progression. Patients who experienced toxicities due to carboplatin/paclitaxel or veliparib may have been given a delay in the dosing schedule or a dose modification.
Pharmacokinetic parameters were evaluated for patients with chemical evidence of recent smoking (cotinine high^b, >10 ng/mL) compared with those without evidence of recent smoking (cotinine low, ≦10 ng/mL).

[2] = system: metastatic or advanced non-small cell lung cancer (NSCLC); experiment: Phase 2 randomized double-blind study: PFS and OS with veliparib + carboplatin/paclitaxel versus placebo + carboplatin/paclitaxel; type: in vivo, human
Protocol: as §1

[3] = patients without chemical evidence of smoking

Structure (SMILES) | differences in levels between cotinine high and cotinine low patients ([1]; cotinine high >10 ng/mL vs cotinine low ≦10 ng/mL) | HR for OS ([2]; light smokers (<39 pack-years)) | HR for PFS ([2]; light smokers (<39 pack-years)) | HR for OS [2, 3] | HR for PFS [2, 3] | Tmax, Mean ± SD (% CV) ([1]; human, in vivo, po) | Tmax ([1]; human, in vivo, po, Tmax, Mean ± SD (% CV)) [h]
N.N.O=C([O-])C1(C(=O)[O-])CCC1.[Pt+2] [carboplatin] | no clear differences |  |  |  |  |  | 
C[C@]1(c2nc3c(C(N)=O)cccc3[nH]2)CCCN1 [Veliparib, 2-[(2R)-2-methylpyrrolidin-2-yl]-1H-benzimidazole-4-carboxamide] |  | 0.808 | 0.971 | 0.921 | 0.966 | 1.05 ± 0.82 (78.3) hr | 1.34
